The results in this text go back to ChEMBL document CHEMBL1149619, “E,E,E-1-(4-Arylamino-4-oxo-2-butenoyl)-3,5-bis(arylidene)-4-piperidones: a topographical study of some novel potent cytotoxins” (Bioorg Med Chem, 2007).

In data set [1] the test system is Aspergillus fumigatus. Nature of the data set: Antifungal activity against Aspergillus fumigatus F69827. It counts as functional.
For data set [2], the system named is Aspergillus fumigatus. Nature of the data set: Antifungal activity against Aspergillus fumigatus M44251. It counts as functional.
Data set [3] has as its system Aspergillus fumigatus. The data set is described as follows: Antifungal activity against Aspergillus fumigatus ATCC 280995. It counts as functional.
The test system of data set [4] is Aspergillus fumigatus. The data set is described as follows: Antifungal activity against Aspergillus fumigatus ATCC 280996. It counts as functional.
Data set [5] relates to Aspergillus fumigatus. The data set is described as follows: Antifungal activity against Aspergillus fumigatus ATCC 280997. Format: functional.
Data set [6] can be described thus: Cytotoxicity against human Molt 4/C8 cells. Format: functional, cell-based. Conditions: Molt4/C8.
Data set [7] relates to CCRF-CEM. Nature of the data set: Cytotoxicity against human CEM cells. Format: functional, cell-based.
The test system of data set [8] is L1210. The data set is described as follows: Cytotoxicity against mouse L1210 cells. Format: functional, cell-based.
Data set [9] can be described thus: Cytotoxicity against human colon cancer cells. It counts as functional. Conditions: Cancer cell lines.
A short description of data set [10]: Cytotoxicity against human leukemia cells. It counts as functional. Conditions: Leukemia cell.
The subject of data set [11] is Mus musculus. The data set is described as follows: Neurotoxicity in mouse assessed as mortality up to 300 mg/kg after 4 hrs. On the set-up: dose 300 mg/kg. It counts as toxicity, organism-based. The note with it: in vivo.
The target of data set [12] is T1, Glycylpeptide N-tetradecanoyltransferase 1 (Homo sapiens) (UniProt P30419).
T1 sequence (whole entry): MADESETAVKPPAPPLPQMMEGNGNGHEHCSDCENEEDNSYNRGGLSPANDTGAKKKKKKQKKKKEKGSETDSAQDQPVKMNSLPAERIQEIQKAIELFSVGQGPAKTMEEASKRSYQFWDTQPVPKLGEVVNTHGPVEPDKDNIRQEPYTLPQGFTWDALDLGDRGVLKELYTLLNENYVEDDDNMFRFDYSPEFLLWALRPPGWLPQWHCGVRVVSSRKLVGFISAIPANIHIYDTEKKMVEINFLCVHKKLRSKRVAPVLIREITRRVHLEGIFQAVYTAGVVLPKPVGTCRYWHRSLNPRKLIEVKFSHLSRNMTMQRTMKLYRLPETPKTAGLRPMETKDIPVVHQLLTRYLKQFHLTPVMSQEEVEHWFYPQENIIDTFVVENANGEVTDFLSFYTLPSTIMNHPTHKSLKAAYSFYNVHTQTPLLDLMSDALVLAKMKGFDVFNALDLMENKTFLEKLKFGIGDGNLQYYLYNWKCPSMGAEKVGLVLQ
Nature of the data set: Inhibition of human NMT at 100 uM.

Data set [13] deals with T1, Glycylpeptide N-tetradecanoyltransferase 1 (Homo sapiens). The data set is described as follows: Inhibition of human NMT at 50 uM.

Broadly, the MIC is the least concentration at which growth counts as inhibited. As for `C[C@@H](c1ncncc1F)[C@](O)(Cn1cncn1)c1ccc(F)cc1F` [VORICONAZOLE], the minimal inhibitory concentration (MIC) in data set [1], in [2], in data set [3], in data set [4] and in [5] was at most 0.25 µg/mL in each case.
As usually defined, the IC50 is the concentration at which inhibition is half-maximal. Read a low IC50 as greater potency in that assay. As usually defined, the GI50 is the concentration at which growth is held to half of that of the control. High values mean lower sensitivity of the cells, low ones greater sensitivity of the cells. Take `O=C(/C=C/C(=O)N1C/C(=C\c2ccccc2)C(=O)/C(=C/c2ccccc2)C1)Nc1ccc(Cl)cc1`: the IC50 came to 1800 nM in data set [6], 840 nM in data set [7] and 7800 nM in data set [8]. The GI50 worked out at 1150 nM in [9] and 589 nM in data set [10]. Further, the MIC in data set [1], in [2], in data set [3], in [4] and in [5] was above 50 µg/mL throughout. In addition, in data set [11], the Activity entry was “Non-toxic”.
For the molecule `COc1ccc(NC(=O)/C=C/C(=O)N2C/C(=C\c3ccccc3)C(=O)/C(=C/c3ccccc3)C2)cc1`, the concentration for half-maximal inhibition (IC50) in [6] came out at 1100 nM; in data set [7], 510 nM; in data set [8], 6800 nM. For the same molecule, the concentration for 50% growth inhibition (GI50) came to 759 nM in [9] and 105 nM in [10]. For the same molecule, the MIC in data set [1], in [2], in data set [3], in data set [4] and in data set [5] was above 50 µg/mL throughout. In addition, in data set [11], the Activity result is “Non-toxic”.
With `O=C(/C=C/C(=O)N1C/C(=C\c2ccccc2)C(=O)/C(=C/c2ccccc2)C1)Nc1ccc([N+](=O)[O-])cc1`, the results for the IC50 in data set [6], in data set [7] and in data set [8] were 31000 nM, 40000 nM and 40000 nM, respectively. For the same molecule, the minimum inhibitory concentration (MIC) in [1], in data set [2], in data set [3], in data set [4] and in [5] was above 50 µg/mL in each case. Further, the Activity entry in data set [11] is listed as “Non-toxic”.
Consider `O=c1[nH]cc(F)c(=O)[nH]1` [FLUOROURACIL], for which the GI50 in [9] was determined as 5750 nM; in [10], 52500 nM.
For `COc1ccc(NC(=O)/C=C/C(=O)N2C/C(=C\c3ccc([N+](=O)[O-])cc3)C(=O)/C(=C/c3ccc([N+](=O)[O-])cc3)C2)cc1`, the IC50 came out at 940 nM in data set [6], 760 nM in data set [7] and 2900 nM in [8]. Also, the minimum inhibitory concentration (MIC) in data set [1], in [2], in [3], in data set [4] and in data set [5] was above 50 µg/mL throughout. For the same molecule, the Activity result in data set [11] is reported as “Non-toxic”.
Consider `O=C(/C=C/C(=O)N1C/C(=C\c2ccc([N+](=O)[O-])cc2)C(=O)/C(=C/c2ccc([N+](=O)[O-])cc2)C1)Nc1ccc(Cl)cc1`, for which the IC50 was found to be 1200 nM in [6], 810 nM in data set [7] and 3600 nM in [8]. Further, the minimum inhibitory concentration (MIC) in data set [1], in [2], in data set [3], in [4] and in data set [5] was above 50 µg/mL in each case. Moreover, the Activity entry in data set [11] is given as “Non-toxic”.
As to `Cc1cccc(C)c1NC(=O)/C=C/C(=O)N1C/C(=C\c2ccc([N+](=O)[O-])cc2)C(=O)/C(=C/c2ccc([N+](=O)[O-])cc2)C1`, the half-inhibitory concentration (IC50) turned out to be 210 nM in [6], 230 nM in [7] and 690 nM in data set [8]. Moreover, the minimum inhibitory concentration (MIC) in data set [1], in data set [2], in data set [3], in data set [4] and in [5] was above 50 µg/mL throughout. Further, in [11], the Activity result was “Non-toxic”.
With `O=C(/C=C/C(=O)N1C/C(=C\c2ccc([N+](=O)[O-])cc2)C(=O)/C(=C/c2ccc([N+](=O)[O-])cc2)C1)Nc1ccccc1`, the concentration for half-maximal inhibition (IC50) in [6] was 360 nM; in [7] it was 370 nM; in data set [8] it was 1800 nM. Besides, the MIC in data set [1], in data set [2], in data set [3], in data set [4] and in data set [5] was above 50 µg/mL in each case. Also, the Activity result in data set [11] is reported as “Non-toxic”.
As for `Cc1cccc(C)c1NC(=O)/C=C/C(=O)N1C/C(=C\c2ccccc2)C(=O)/C(=C/c2ccccc2)C1`, the 50% inhibitory concentration (IC50) amounted to 6600 nM in [6], 7400 nM in [7] and 22000 nM in data set [8]. Moreover, the MIC in data set [1], in [2], in data set [3], in data set [4] and in data set [5] was above 50 µg/mL in each case. Besides, the Activity entry in [11] is reported as “Non-toxic”.
`O=C(/C=C/C(=O)N1C/C(=C\c2ccc([N+](=O)[O-])cc2)C(=O)/C(=C/c2ccc([N+](=O)[O-])cc2)C1)Nc1ccc([N+](=O)[O-])cc1`: the half-inhibitory concentration (IC50) worked out at 430 nM in [6], 410 nM in [7] and 1000 nM in data set [8]. The MIC in [1], in [2], in data set [3], in data set [4] and in data set [5] was above 50 µg/mL throughout. In addition, in [11], the Activity entry is given as “Non-toxic”.
Take `Cc1ccc(NC(=O)/C=C/C(=O)N2C/C(=C\c3ccccc3)C(=O)/C(=C/c3ccccc3)C2)cc1C`: the results for the IC50 in data set [6], in [7] and in [8] were 7900 nM, 7100 nM and 31000 nM, respectively. Further, the MIC in data set [1], in data set [2], in [3], in data set [4] and in data set [5] was above 50 µg/mL in each case. Further, the Activity result in data set [11] was “Non-toxic”.
On to `N[C@@H](Cc1ccc(N(CCCl)CCCl)cc1)C(=O)O` [MELPHALAN], for which the GI50 in data set [9] was 50100 nM; in [10] it was 3980 nM.
As a reminder, the inhibition is the percentage by which the read-out fell short of the control. A low value points to a response near the control. Consider `O=C(/C=C/C(=O)N1C/C(=C\c2ccc([N+](=O)[O-])cc2)C(=O)/C(=C/c2ccc([N+](=O)[O-])cc2)C1)Nc1ccc(Cl)c(Cl)c1`, for which the values for the IC50 in [6], in data set [7] and in [8] were 600 nM, 380 nM and 1700 nM, respectively. In addition, the inhibition in data set [12] came out at 50%. Besides, the MIC in data set [1], in data set [2], in data set [3], in [4] and in [5] was above 50 µg/mL throughout. In data set [11], the Activity entry was “Non-toxic”.
For `Cc1ccc(NC(=O)/C=C/C(=O)N2C/C(=C\c3ccccc3)C(=O)/C(=C/c3ccccc3)C2)cc1`, the half-maximal inhibitory concentration (IC50) was determined as 660 nM in data set [6], 1100 nM in data set [7] and 5800 nM in [8]. In data set [13], the inhibition was determined as 50%. Also, the MIC in [1], in data set [2], in [3], in data set [4] and in data set [5] was above 50 µg/mL throughout. The Activity entry in data set [11] is recorded as “Non-toxic”.
For `O=C(/C=C/C(=O)N1C/C(=C\c2ccccc2)C(=O)/C(=C/c2ccccc2)C1)Nc1ccc(Cl)c(Cl)c1`, the IC50 in [6] stood at 1700 nM; in data set [7] it was 350 nM; in [8], 7500 nM. For the same molecule, the values for the GI50 in data set [9] and in data set [10] were 646 nM and 447 nM, respectively. Also, the inhibition in data set [12] came out at 50%. Moreover, the MIC in data set [1], in [2], in data set [3], in [4] and in data set [5] was above 50 µg/mL throughout. Besides, the Activity entry in data set [11] was “Non-toxic”.
In the case of `O=C(/C=C/C(=O)N1C/C(=C\c2ccccc2)C(=O)/C(=C/c2ccccc2)C1)Nc1ccccc1`, the figures for the half-maximal inhibitory concentration (IC50) in data set [6], in data set [7] and in data set [8] were 520 nM, 1100 nM and 3600 nM, respectively. Besides, the MIC in [1], in data set [2], in data set [3], in data set [4] and in [5] was above 50 µg/mL in each case. Moreover, the Activity result in data set [11] is listed as “Non-toxic”.
Take `Cc1ccc(NC(=O)/C=C/C(=O)N2C/C(=C\c3ccc([N+](=O)[O-])cc3)C(=O)/C(=C/c3ccc([N+](=O)[O-])cc3)C2)cc1C`: the results for the IC50 in data set [6], in data set [7] and in data set [8] were 660 nM, 700 nM and 4900 nM, respectively. Also, the minimum inhibitory concentration (MIC) in data set [1], in [2], in [3], in [4] and in [5] was above 50 µg/mL each time. Also, the Activity entry in data set [11] is on record as “Non-toxic”.
With `CC(=O)c1ccc(NC(=O)/C=C/C(=O)N2C/C(=C\c3ccc([N+](=O)[O-])cc3)C(=O)/C(=C/c3ccc([N+](=O)[O-])cc3)C2)cc1`, the figures for the IC50 in [6], in [7] and in data set [8] were 390 nM, 360 nM and 1400 nM, respectively. In addition, the minimum inhibitory concentration (MIC) in data set [1], in data set [2], in data set [3], in data set [4] and in data set [5] was above 50 µg/mL each time. For the same molecule, the Activity result in [11] was “Non-toxic”.
On to `CC(=O)c1ccc(NC(=O)/C=C/C(=O)N2C/C(=C\c3ccccc3)C(=O)/C(=C/c3ccccc3)C2)cc1`, for which the 50% inhibitory concentration (IC50) in data set [6] worked out at 1400 nM; in data set [7], 1700 nM; in data set [8], 5500 nM. For the same molecule, the MIC in data set [1], in data set [2], in [3], in [4] and in data set [5] was above 50 µg/mL each time. In [11], the Activity result was “Non-toxic”.
